Reference: BindingDB's records for doi:10.1074/jbc.M114.566729 (University of Colorado School of Medicine, 2014)
pIC50: −log10 of the molar value.

Target: T1, Eyes absent homolog 2 [253-538] (Human, UniProt O00167)
T1 construct: 253-538
T1 sequence (O00167 whole entry): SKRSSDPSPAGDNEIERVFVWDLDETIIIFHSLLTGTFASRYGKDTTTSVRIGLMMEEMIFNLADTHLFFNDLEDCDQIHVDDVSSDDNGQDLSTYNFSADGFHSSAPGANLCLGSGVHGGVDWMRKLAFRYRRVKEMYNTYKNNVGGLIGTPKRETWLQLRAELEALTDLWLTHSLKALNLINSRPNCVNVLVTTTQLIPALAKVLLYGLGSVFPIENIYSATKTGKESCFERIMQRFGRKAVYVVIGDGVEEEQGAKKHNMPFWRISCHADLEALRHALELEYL
Experiment: Eya Phosphatase Assay
Details: pH 6.5; 25 °C
Protocol: Eya activity was measured in 50-μl reactions using black, 96-well, half-volume microtiter plates (Greiner Bio-one) with the substrate OMFP (3-O-methylfluoresceinphosphate, Sigma-Aldrich), which is converted to a fluorescent product OMF upon dephosphorylation. […] Reactions were started by the addition of OMFP, preceded for 1 h at room temperature followed by terminating the reaction with the addition of 75mMEDTA.

pIC50: 5.54
Compound: O=C(N/N=C/c1ccc(Sc2ccccn2)s1)c1cccc(F)c1 [NCGC00249327]
